In patent US20020122768A1, “Stable radiopharmaceutical compositions and methods for preparation thereof” (priority 2000, published 2002):

Test: Solution stability of ^90Y-B at −78° C., RCP by radio-HPLC
Format: physicochemical
Details: ^90Y-B prepared with GA; for RCP (%) t = 0 / RCP (%) t = 3 days / RCP (%) t = 7 days: degassed, second stabilizer (20 mg AA, 20 mg DSA, 10 mg 2,3,4-THBA, 10 mg HABA) added post-labeling; for RCP (%) change: second stabilizer added post-labeling, t = 0 to 7 days
Experimental: The integrity of a radiopharmaceutical is measured by the radiochemical purity (RCP) of the radiolabeled compound using ITLC or more preferably HPLC. The advantage of using HPLC is that radio-impurities caused by radiolytic degradation can be separated from the radiopharmaceutical under optimized chromatographic conditions. […] The radiopharmaceutical compositions of this invention are effective in maintaining the long-term stability of samples that have been frozen, thawed, and re-tested periodically for 7 days.
The initial RCP of a radiopharmaceutical is largely dependent on radiolabeling conditions such as pH, heating temperature and time. Once a radiopharmaceutical is prepared in high yield, the stability of the radiopharmaceutical composition is measured by the` RCP change of the radiopharmaceutical over a certain period of time. For comparison purposes, sodium gentisate or sodium ascorbate was often used as the reference since they have been used in various radiopharmaceutical formulations.
HPLC method 2 used a HP-1100 HPLC system with a UV/visible detector (λ=220 nm), an IN-US radio-detector, and a Zorbax C18 column (4.6 mm×250 mm, 80 Å pore size). The flow rate was 1 mL/min with a gradient mobile phase starting from 92% solvent A (0.025 M ammonium acetate buffer, pH 6.8) and 8% solvent B (acetonitrile) at 0 min to 90% solvent A and 10% solvent B at 18 min, followed by an isocratic wash using 40% of solvent A and 60% solvent B from 19 to 25 min.
The ITLC method used Gelman Sciences silica-gel ITLC paper strips and 1:1 mixture of acetone and saline as eluant. By this method, the radiolabeled compounds migrate to the solvent front while [^90Y]/^177Lu]colloid and [^90Y]/^177Lu]acetate remain at the origin. […]
The 0.5 M ammonium acetate buffer (pH 8.0) was first degassed under vacuum for 1-2 min. COMPOUND B and gentisic acid (sodium salt, GA) were dissolved in the degassed buffer to give a concentration of 100 μg/mL for COMPOUND B and 20 mg/mL for GA. The resulting solution was immediately degassed under vacuum for another 1-2 min. To a clean sealed 5 mL vial was added 1.0 mL of the degassed 0.5 M ammonium acetate buffer (pH 8.0) containing 100 μg COMPOUND B and 10 mg GA. The solution was degassed again under vacuum. Upon addition of ˜20 μL of ^90YCl3 solution (˜20 mCi) in 0.05 N HCl, the reaction mixture was heated at 100° C. for 5 min. After cooling to room temperature, a sample of the resulting solution was diluted 20-fold with saline containing gentisate (10 mg/mL), and was then analyzed by HPLC (Method 2, injection volume=1-2 μL) and ITLC. […] To the solution above was added 0.5 mL of sodium ascorbate solution (40 mg/mL in 0.5 M ammonium acetate buffer, pH=7.4). The resulting mixture was then kept in a dry-ice box (−78° C.) for 7 days. Samples were analyzed at t=0, 3 and 7 days.
The 0.5 M ammonium acetate buffer (pH 8.0) was first degassed under vacuum for 1-2 min. COMPOUND B and gentisic acid (sodium salt, GA) were dissolved in the degassed buffer to give a concentration of 100 μg/mL for COMPOUND B and 20 mg/mL for GA. The resulting solution was immediately degassed under vacuum for another 1-2 min. To a clean sealed 5 mL vial was added 1.0 mL of the degassed 0.5 M ammonium acetate buffer (pH 8.0) containing 100 μg COMPOUND B and 10 mg GA. The solution was degassed again under vacuum. Upon addition of ˜20 μL of ^90YCl3 solution (˜20 mCi) in 0.05 N HCl, the reaction mixture was heated at 100° C. for 5 min. After cooling to room temperature, a sample of the resulting solution was diluted 20-fold with saline containing gentisate (10 mg/mL), and was then analyzed by HPLC (Method 2, injection volume=1-2 μL) and ITLC. […] To the solution above was added 0.5 mL of 2,3,4-trihydroxybenzoic acid solution (20 mg/mL in 0.5 M ammonium acetate buffer, pH=6.5). The resulting mixture was then kept in a dry-ice box (−78° C.) for 7 days. Samples were analyzed at t=0, 3 and 7 days. […]

RCP (%) t = 0	RCP (%) t = 3 days	RCP (%) t = 7 days	RCP (%) change	Compound
94.2%	93.6%	93.9%	0.3%	O=C(O)c1ccc(O)c(O)c1O [2,3,4-THBA, 2,3,4-trihydroxybenzoic acid]
94.4%	94.8%	94.5%	0.1%	2,4-disulfonatobenzeneamine [DSA]
